# Columns and labels:
# Type in all cases: cell-based
# [1] = Human Regulatory T Cell Differentiation Assay; conditions: human, primary naïve CD4+ T cells isolated from PBMCs, read-out: Cell viability % DMSO
# Procedure: (§1) Peripheral blood mononuclear cells (PBMCs) from whole blood donated by health volunteers were separated by Ficoll-Paque gradient centrifugation and naïve CD4^+ T cells were subsequently isolated using magnet beads (EasySep™ Human Naïve CD4^+ T Cell Isolation Kit, Cambridge, Mass.). For regulatory T cell (Treg) differentiation assay, naïve CD4^+ T cells were cultured (1-10×10^4 cells) in CTS OpTmizer medium for 6 days and stimulated with 5 ng/ml TGF-β, 100 U/ml IL-2, and ImmunoCult™ Human […] T Cell Activator; Stemcell #10990) with/without Compounds. Cell viability was determined using a viability dye (eBioscience Fixable Viability Dye eFluor 780: ThermoFisher 65-0865-14) at 1:500 dilution. The cells were gated for Treg, defined as Live, CD11c^−, CD14^−, CD19^−, CD8^−, CD4^+, CD3^+, CD25^+, FOXP3^+. Percent (%) Tregs were calculated as percentage of CD4^+, CD25^+, FOXP3^+ cells over total CD4^+ T cells. Statistical analysis was performed with GraphPad Prism Software Using One-Way ANOVA.
# A-431 skin cancer cells = test: Cancer cell survival (CellTiter-Glo), A-431; parameters: Cell survival at given concentration: unit not given here; conditions: A-431 cells, 72 h
# Summary of the method: (§2)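 Luminescent ATP read-out (CellTiter-Glo) after 72 h compound exposure at 37 C/5% CO2. Survival % is calculated against untreated cells minus medium background, and IC50 is taken from nine concentrations run in triplicate. Plating density was 4×10^3 cells/well with overnight attachment beforehand.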
# [2] = tested on: PC-3 prostate cancer cells; test: Cancer cell survival (CellTiter-Glo), PC-3; conditions: PC-3 cells, 72 h
# Summary of the method: as §2
# MCF7 breast cancer cells = test: Cancer cell survival (CellTiter-Glo), MCF7; conditions: 72 h
# Summary of the method: as §2
# [3] = tested on: Daudi lymphoma cancer cells; test: Cancer cell survival (CellTiter-Glo), Daudi; conditions: 72 h
# Summary of the method: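 Daudi cells (4×10^3/well) were exposed for 72 h at 37 °C to nine concentrations of compound, added as 10× solutions spanning 1 μM–10 mM (fatty acids) or 100 nM–1 mM (others). CellTiter-Glo luminescence gave % survival versus untreated, medium-blank corrected; IC50 derived.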
# naïve CD4^+ T cells = test: Human Regulatory T Cell Differentiation Assay; conditions: 6 days
# Procedure: as §1
# [4] = tested on: HCT 116 colorectal cancer cells; test: Cancer cell survival (CellTiter-Glo), HCT 116; conditions: HCT 116 cells, 72 h
# Summary of the method: as §2
# T24 bladder cancer cells = test: Cancer cell survival (CellTiter-Glo), T24; conditions: 72 h
# Summary of the method: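 Viability by CellTiter-Glo after 72 h compound treatment of T24 bladder cancer cells (4×10^3/well, plated the night before), nine concentration levels in triplicate. Percent survival normalised to untreated cells minus medium background, from which IC50 was determined.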
# A549 lung cancer cells = test: Cancer cell survival (CellTiter-Glo), A549; conditions: 72 h
# Summary of the method: as §2
# AGS stomach cancer cells = test: Cancer cell survival (CellTiter-Glo), AGS; parameters: Cell survival at given concentration: unit not given here
# Summary of the method: as §2
structure (smiles),measurement,setting,value
"C[C@@H](O)CCO [(R)-1,3-Butanediol]","viability at 6 days, 100 µM",[1],90 to 110%
same,"viability at 6 days, 0.5 mM",[1]; 0.5 mM,90 to 110%
CC(=O)O [Acetic acid],"viability at 6 days, 1 mM",[1]; 1 mM,90 to 110%
same,"viability at 6 days, 3 mM",[1],90 to 110%
CCCC(=O)O [Butyric Acid],"viability at 6 days, 3 mM",[1],< 90%
"O=C(O[C@@H]1Cc2c(O)cc(O)cc2O[C@@H]1c1cc(O)c(O)c(O)c1)c1cc(O)c(O)c(O)c1 [EGCG, epigallocatechin gallate]",Cell survival at given concentration,A-431 skin cancer cells; 101 nM,1.02
same,Cell survival at given concentration,A-431 skin cancer cells; 318 nM,1.02
same,Cell survival at given concentration,A-431 skin cancer cells; 1 μM,1.02
same,Cell survival at given concentration,A-431 skin cancer cells; 3 μM,1.01
same,Cell survival at given concentration,A-431 skin cancer cells; 10 μM,1.04
same,Cell survival at given concentration,A-431 skin cancer cells; 32 μM,0.78
same,Cell survival at given concentration,A-431 skin cancer cells; 100 μM,0.38
same,Cell survival at given concentration,A-431 skin cancer cells; 316 μM,0.30
same,Cell survival at given concentration,A-431 skin cancer cells; 1000 μM,0.04
same,IC50,A-431 skin cancer cells; Table 9.1,81.9 µM
same,Cell survival at given concentration,[2]; 101 nM,1.01
same,Cell survival at given concentration,[2]; 318 nM,0.99
same,Cell survival at given concentration,[2]; 1 μM,1.01
same,Cell survival at given concentration,[2]; 3 μM,0.97
same,Cell survival at given concentration,[2]; 10 μM,0.99
same,Cell survival at given concentration,[2]; 32 μM,0.82
same,Cell survival at given concentration,[2]; 100 μM,0.60
same,Cell survival at given concentration,[2]; 316 μM,0.51
same,Cell survival at given concentration,[2]; 1000 μM,0.10
same,IC50,[2]; Table 8.1,245 µM
same,Cell survival at given concentration,MCF7 breast cancer cells; 101 nM,1.01
same,Cell survival at given concentration,MCF7 breast cancer cells; 318 nM,0.99
same,Cell survival at given concentration,MCF7 breast cancer cells; 1 μM,0.99
same,Cell survival at given concentration,MCF7 breast cancer cells; 3 μM,0.97
same,Cell survival at given concentration,MCF7 breast cancer cells; 10 μM,0.96
same,Cell survival at given concentration,MCF7 breast cancer cells; 32 μM,0.77
same,Cell survival at given concentration,MCF7 breast cancer cells; 100 μM,0.55
same,Cell survival at given concentration,MCF7 breast cancer cells; 316 μM,0.51
same,Cell survival at given concentration,MCF7 breast cancer cells; 1000 μM,0.11
same,IC50,MCF7 breast cancer cells; Table 5.1,231 µM
same,Cell survival at given concentration,[3]; 101 nM,1.03
same,Cell survival at given concentration,[3]; 318 nM,1.02
same,Cell survival at given concentration,[3]; 1 μM,1.01
same,Cell survival at given concentration,[3]; 3 μM,0.97
same,Cell survival at given concentration,[3]; 10 μM,0.76
same,Cell survival at given concentration,[3]; 32 μM,0.31
same,Cell survival at given concentration,[3]; 100 μM,0.17
same,Cell survival at given concentration,[3]; 316 μM,0.00
same,Cell survival at given concentration,[3]; 1000 μM,0.00
same,IC50,[3]; Table 4.1,20.4 µM
same,Cell viability % DMSO,naïve CD4^+ T cells; 100 nM,= (90% ≥ ≤110%: =)
same,Treg induction % DMSO,naïve CD4^+ T cells; 100 nM,= (90% ≥ ≤110%: =)
same,Cell viability % DMSO,naïve CD4^+ T cells; 1 uM,= (90% ≥ ≤110%: =)
same,Treg induction % DMSO,naïve CD4^+ T cells; 1 uM,= (90% ≥ ≤110%: =)
same,Cell survival at given concentration,[4]; 101 nM,1.05
same,Cell survival at given concentration,[4]; 318 nM,0.98
same,Cell survival at given concentration,[4]; 1 μM,1.00
same,Cell survival at given concentration,[4]; 3 μM,1.03
same,Cell survival at given concentration,[4]; 10 μM,1.00
same,Cell survival at given concentration,[4]; 32 μM,0.61
same,Cell survival at given concentration,[4]; 100 μM,0.25
same,Cell survival at given concentration,[4]; 316 μM,0.06
same,Cell survival at given concentration,[4]; 1000 μM,0.00
same,IC50,[4]; Table 6.1,46.3 µM
same,Cell survival at given concentration,T24 bladder cancer cells; 101 nM,1.00
same,Cell survival at given concentration,T24 bladder cancer cells; 318 nM,0.97
same,Cell survival at given concentration,T24 bladder cancer cells; 1 μM,1.02
same,Cell survival at given concentration,T24 bladder cancer cells; 3 μM,1.01
same,Cell survival at given concentration,T24 bladder cancer cells; 10 μM,0.96
same,Cell survival at given concentration,T24 bladder cancer cells; 32 μM,0.58
same,Cell survival at given concentration,T24 bladder cancer cells; 100 μM,0.15
same,Cell survival at given concentration,T24 bladder cancer cells; 316 μM,0.03
same,Cell survival at given concentration,T24 bladder cancer cells; 1000 μM,0.03
same,IC50,"T24 bladder cancer cells; Table 3.1, read-out: 1050",37.8 µM
same,Cell survival at given concentration,A549 lung cancer cells; 101 nM,1.02
same,Cell survival at given concentration,A549 lung cancer cells; 318 nM,1.05
same,Cell survival at given concentration,A549 lung cancer cells; 1 μM,1.03
same,Cell survival at given concentration,A549 lung cancer cells; 3 μM,1.04
same,Cell survival at given concentration,A549 lung cancer cells; 10 μM,0.99
same,Cell survival at given concentration,A549 lung cancer cells; 32 μM,0.77
same,Cell survival at given concentration,A549 lung cancer cells; 100 μM,0.33
same,Cell survival at given concentration,A549 lung cancer cells; 316 μM,0.21
same,Cell survival at given concentration,A549 lung cancer cells; 1000 μM,0.01
same,IC50,A549 lung cancer cells; Table 7.1,67.4 µM
same,Cell survival at given concentration,AGS stomach cancer cells; 101 nM,1.01
same,Cell survival at given concentration,AGS stomach cancer cells; 318 nM,1.02
same,Cell survival at given concentration,"AGS stomach cancer cells; 1 μM, Table 10.1",1.05
same,Cell survival at given concentration,"AGS stomach cancer cells; 3 μM, Table 10.1",1.02
same,Cell survival at given concentration,"AGS stomach cancer cells; 10 μM, Table 10.1",0.90
same,Cell survival at given concentration,"AGS stomach cancer cells; 32 μM, Table 10.1",0.49
same,Cell survival at given concentration,"AGS stomach cancer cells; 100 μM, Table 10.1",0.20
same,Cell survival at given concentration,AGS stomach cancer cells; 316 μM,0.08
same,Cell survival at given concentration,AGS stomach cancer cells; 1000 μM,0.00
same,IC50,AGS stomach cancer cells; Table 10.1,33.2 µM
CC[C@H]1[C@@H](O)[C@@H]2[C@H](CC[C@]3(C)[C@@H]([C@H](C)CCC(=O)O)CC[C@@H]23)[C@@]2(C)CC[C@@H](O)C[C@@H]12 [Obeticholic acid],"viability at 6 days, 100 µM",[1],90 to 110%
CCC(=O)O [Propionic acid],"viability at 6 days, 3 mM",[1],90 to 110%
same,activity at 3000 µM,"naïve CD4^+ T cells; Homo sapiens, CD4+ T, 144 h, 3 mM, read-out: Treg induction % DMSO",> 130%
O=c1c(O)c(-c2ccc(O)c(O)c2)oc2cc(O)cc(O)c12 [Quercetin],"viability at 6 days, 0.1 µM",[1]; 100 nM,90 to 110%
same,"viability at 6 days, 1 µM",[1]; 1 uM,90 to 110%
CN(CCOc1ccc(CC2SC(=O)NC2=O)cc1)c1ccccn1 (stereo not shown) [Rosiglitazone],"viability at 6 days, 10 µM",[1]; 10 uM,90 to 110%
same,"viability at 6 days, 100 µM",[1],< 90%
CC(O)CC(=O)[O-].[Na+] (stereo not shown) [Sodium BHB],Cell viability % DMSO,naïve CD4^+ T cells; 2 mM,= (90% ≥ ≤110%: =)
same,Treg induction % DMSO,naïve CD4^+ T cells; 2 mM,+ (110% > ≤130%: +)
same,Cell viability % DMSO,naïve CD4^+ T cells; 20 mM,− (<90%: −)
same,Treg induction % DMSO,naïve CD4^+ T cells; 20 mM,= (90% ≥ ≤110%: =)

# — US20210085640A1, “ACYLATED CATECHIN POLYPHENOLS AND METHODS OF THEIR USE FOR THE TREATMENT OF CANCER” (Flagship Pioneering Innovations V, Inc., priority 2018, published 2021)
